According to patent publication EP3991729A1, “USE OF AMLEXANOX IN PREPARING ANTI-HEPATITIS VIRUS DRUG” (Marine Biomedical Research Institute Of Qingdao Co., Ltd., priority 2019, dated 2020):
Counter-ions that a name gives are not always drawn.

Columns and labels:
B and T cells = assay: Immune cells in blood of HBV-infected mice, flow cytometry; details: 530 mg/kg/day, once a day, oral gavage, day 9, Figure 19
Procedure: Six-week-old male C57 mice were rapidly injected with 10µg/mouse of viral genomic DNA (genotype A) by tail vein injection in a short period. Viral infection was established using a venous hypertension model and randomly divided into groups. […] At the same time, a blank control was set up, and oral administration in uninfected mice was equivalent to the model group.
On day 9, mice were sacrificed to collect blood stained with flow antibody after fission red. All cells were treated with anti-FcγRIII/ II (purchased from BD Biosciences) in PBS for 30 min. CD3e-FITC (purchased from BD Biosciences). CD4-PE, CD8a-APC-Vio770, and CD34-FITC (GE). CD19-APC, CD11b-PE-Cyanine7, and CD117-efflor 450 (purchased from eBioscience). After staining, the samples were suspended using 500µL PBS and analyzed by BD Aria III flow cytometer.

293 cells = assay: Cytotoxicity test, MTT assay; format: cell-based; details: Homo sapiens, HEK293; 1 µM, 72h
Procedure: (§1) […]. Various cells in the logarithmic growth phase were seeded in 96-well plates at 6,000 cells/well and cultured for 24h. […]. The dosage of DMSO in the solvent control group was based on the maximum dose of 0.1% used in the test group, with four duplicate wells for each concentration. Cells were treated with the drug for 72h and then added with 20µL 5 mg/mL MTT, cultured at 37°C for 4h, after added 100 µ L triple solution (10% SDS, 5% isobutanol, 12 mM hydrochloric acid), 96-well cell culture plate was placed in an incubator containing 5% CO2 at 37 ± 1°C overnight. OD value at 570nm was measured on a microplate reader.
(§2) The inhibition rate of tumor cell growth was calculated according to the following formula: Inhibition rate(%) = [(OD570controlwell−OD570dosewell)/OD570controlwell] × 100. [formula]

Huh7 cells = assay: Cytotoxicity test, MTT assay; format: cell-based; details: Homo sapiens, Huh-7; 1 µM, 72h; read-out: Inhibition (%) Hu h7
Procedure: as §1, §2

HepG2 cells = assay: Cytotoxicity test, MTT assay; format: cell-based; details: Homo sapiens, HepG2; 1 µM, 72h; read-out: Inhibition (%) Hep G2
Procedure: as §1, §2

MKN45 cells = assay: Cytotoxicity test, MTT assay; format: cell-based; details: Homo sapiens, MKN-45; 1 µM, 72h
Procedure: as §1, §2

Hela cells = assay: Cytotoxicity test, MTT assay; format: cell-based; details: Homo sapiens, 1 µM, 72h, read-out: Inhibition (%) Hel a
Procedure: as §1, §2

HCT-116 cells = assay: Cytotoxicity test, MTT assay; format: cell-based; details: Homo sapiens, HCT-116; 1 µM, 72h
Procedure: as §1, §2

A549 cells = assay: Cytotoxicity test, MTT assay; format: cell-based; details: Homo sapiens, A549; 1 µM, 72h
Procedure: as §1, §2

MCF7 cells = assay: Cytotoxicity test, MTT assay; format: cell-based; details: Homo sapiens, MCF7; 1 µM, 72h; read-out: Inhibition (%) MC F7
Procedure: as §1, §2

SMILES | effect on immune cells in blood (B and T cells) | inhibition at 1 µM (293 cells) [%] | inhibition at 1 µM (Huh7 cells) [%] | inhibition at 1 µM (HepG2 cells) [%] | inhibition at 1 µM (MKN45 cells) [%] | inhibition at 1 µM (Hela cells) [%] | inhibition at 1 µM (HCT-116 cells) [%] | inhibition at 1 µM (A549 cells) [%] | inhibition at 1 µM (MCF7 cells) [%]
Nc1ccn([C@@H]2CS[C@H](CO)O2)c(=O)n1 [lamivudine] | had some inhibitory effects on immune cells |  |  |  |  |  |  |  | 
COc1cccc2c1C(=O)c1c(O)c3c(c(O)c1C2=O)C[C@@](O)(C(=O)CO)C[C@@H]3O[C@H]1C[C@H](N)[C@H](O)[C@H](C)O1 [Adriamyci n Hydrochloride, doxorubicin hydrochloride] |  | 57.9 | 76.9 | 92.1 | 39.4 | 48.8 | 71.9 | 85.8 | 88
